Measured values: PubChem BioAssay AID2305 (GlaxoSmithKline (GSK), 2010)

tested on: P. falciparum 3D7 growth, pLDH absorbance; assay: P. falciparum 3D7 growth inhibition, dose response, strain 3D7 (AID 2305)

Compound | IC50
FC(F)(F)c1ccc2nccc(NCc3ccccc3)c2c1 | 1150 nM
CCCNc1ccc2nccc(CCN3CCC(NCc4ccc5c(n4)NC(=O)CS5)CC3)c2n1 | 720 nM
O=C(CCCCCCc1ccccc1)Nc1ccc2nc3c(c(NCc4ccccc4)c2c1)CCCC3 | 360 nM
Cc1ccc(NC(=O)N2CCN(CCCCCNC(=O)/C=C/c3ccc(Cl)c(Cl)c3)CC2)cc1C | 1100 nM
NC(N)=Nc1nc(-c2cccc(NC(=O)C(F)(F)F)c2)cs1 | 1050 nM
CS(=O)(=O)c1ccc(CNCc2ccc(-c3ccc(-c4nc5ccc(C(F)(F)F)cc5[nH]4)s3)cc2)cc1 | 160 nM
O=C(NCCCCCN1CCC(c2c[nH]c3ccccc23)CC1)c1ccc(Cl)c(Cl)c1 | 1360 nM
CSc1ccc(CN2CCC(CNC(=O)c3cc(-c4ccccc4F)cs3)C2)cc1 (stereo not drawn) | 1140 nM
COc1ccc2c(c1CCNCCCCNCCc1c(OC)ccc3c1CCCC3)CCCC2 | 380 nM
O=C(NC1CCCCC1)C1CCCN(C(=O)c2ccc(O)c(-c3ccc(Cl)c(Cl)c3)c2)C1 (stereo not drawn) | 900 nM
COc1ccc2ncc(F)c([C@H](O)CN3CCC(NCc4ccc5c(c4)NC(=O)CS5)CC3)c2c1 | 190 nM
CCC(C)(C)C1CCc2nc(N)nc(N)c2C1 (stereo not drawn) | 10 nM
O=C(Nc1ccc(Cl)c(Cl)c1)C1CCC(=O)N1[C@@H](Cc1ccccc1)C(=O)NCCc1ccc(Cl)cc1 (stereo partly drawn) | 1100 nM
Cc1cccc(-n2c(Nc3ccc(C)c(Cl)c3)nc3ccc(S(=O)(=O)NC(C)C(C)C)cc32)c1 (stereo not drawn) | 650 nM
Cc1nnc(-c2ccc3ccccc3c2)c2cn(-c3cccc([N+](=O)[O-])c3)nc12 | 990 nM
O=C(/C=C/c1ccc(Cl)c(Cl)c1)NCCCCCN1CCC(NC(=O)c2cccc(Cl)c2)CC1 | 690 nM
COc1ccc(-c2cc(C(F)(F)F)n3ncc(C(=O)Nc4cc(C)ccc4O)c3n2)cc1OC | 130 nM
CN(C)CCOc1cccc(NC(=O)Nc2ccc(-c3ccccc3)cc2)c1 | 880 nM
O=S(=O)(c1cccc(Br)c1)N1CCCCC(c2ccc(C(F)(F)F)cc2)=N1 | 550 nM
NC(N)=NN=Cc1c[nH]c2ccc(-c3ccccc3)cc12 | 530 nM
COc1ccc2nccc(N3CCC(NCc4ccc5c(n4)NC(=O)CS5)CC3)c2n1 | 860 nM
Cc1ccc2[nH]c3c(NCCCN(C)C)ncnc3c2c1 | 650 nM
CN(C)Cc1cccc(-c2ccc(NC(=O)c3ccc4c(=O)n(CCN5CCCCC5)cnc4c3)cc2)c1 | 650 nM
COc1ccc(CCCN2C(=O)C(c3ccccc3)(c3ccccc3)N=C2N)cc1 | 1050 nM
CC(C)N1CCC(N(Cc2ccc(-c3ccc(C(F)(F)F)cc3)cc2)C(=O)CCCn2c(CCc3cccc(F)c3F)nc(=O)c3ccccc32)CC1 | 970 nM

Compound | IC50
COc1ccc(Nc2nccc(-c3ccc(NC(=O)c4cc5cc(F)ccc5[nH]4)cc3)n2)cc1 | 630 nM
CC(=O)Nc1ccccc1OCc1cc2cc(C(=O)N3CCC(N4C(=O)OCc5ccccc54)CC3)ccc2o1 | 240 nM
Cc1cc(NN=Cc2ccc(Cl)cc2)c2ccccc2n1 | 790 nM
Cc1ccc2c(NC(=O)Nc3ccc(N(C)C)cc3)cc(C)nc2c1 | 820 nM
COc1ccc2ncc(C#N)c(CCN3[C@@H]4CC[C@H]3CC(NCc3ccc5c(n3)NC(=O)CS5)C4)c2c1 (stereo partly drawn) | 810 nM
Cc1cccc2[nH]c(-c3ccc(-c4cccc(NC(=O)COc5ccccc5C(N)=O)c4)s3)nc12 | 730 nM
CCC(C)NS(=O)(=O)c1ccc2nc(Nc3cccc(SC)c3)n(C(C)C(C)C)c2c1 (stereo not drawn) | 500 nM
CCC(C(=O)Nc1ccccc1)n1nc(-c2ccc(C)c(S(=O)(=O)N3CCCCC3)c2)ccc1=O (stereo not drawn) | 1090 nM
COC(=O)c1ccc(NC(=O)Nc2ccc(Cn3ncc(N4CCCNCC4)c(Cl)c3=O)cc2)cc1 | 600 nM
Cc1cc(OCc2ccncc2)cc2c1C(=O)CC(C)(C)O2 | 180 nM
COc1cc(CNC[C@@H](O)[C@H](Cc2ccccc2)NC(=O)c2cc(OC(C)C)cc(N3CCCCS3(=O)=O)c2)cc(OC)c1 | 590 nM
COc1cc(Cc2cnc(N)nc2N)cc(OCCCCCC(=O)O)c1OC | 230 nM
NC(N)=NC(=O)Nc1cc(F)c(Cl)c(Br)c1 | 990 nM
O=C(Nc1cccc(-c2ccc(CN3CCNCC3)cc2)c1)c1cccc(Cl)c1 | 1250 nM
CCCCN(CCCC)C(=O)CC(O)c1cc2c(Cl)cc(Cl)cc2c2cc(C(F)(F)F)ccc12 (stereo not drawn) | 1210 nM
COc1cccc(-c2nn(C)c3sc(C(=O)NCCN(C)Cc4ccccc4)cc23)c1 | 810 nM
COc1cc(Cc2cnc(N)nc2N)cc(OCCCc2cc(OCc3ccccc3)no2)c1OC | 1870 nM
Cc1cc(NCCc2cccc(F)c2)nc(/N=C(\N)Nc2cccc(C(F)(F)F)c2)n1 | 150 nM
Cc1cc(N[C@@H](Cc2ccccc2)C(=O)Nc2ccccc2)nc(NCCN2CCCC2)n1 | 1810 nM
Cc1cc(C2CCN(CCCCNC(=O)c3ccc(-c4ccc(C(F)(F)F)cc4)cc3)CC2)c(C)cc1OCCO | 880 nM
CCN(CC)CCn1c2ccccc2c2ccc(C(=O)Nc3ccc4sc(C)nc4c3)cc21 | 1060 nM
O=C(Nc1nc(-c2ccccn2)cs1)c1ccc(S(=O)(=O)N2CCc3ccccc32)cc1 | 830 nM
CCC(C)NS(=O)(=O)c1ccc2nc(Nc3ccc(C)cc3)n(C3CCCCC3)c2c1 (stereo not drawn) | 460 nM
COc1cc(NCC(C)CNCc2cn(Cc3ccccc3)c3ccccc23)nc2ccccc12 (stereo not drawn) | 630 nM
CC(C)N1CCN(C(CN2CCN(CCCOc3cccc4ccccc34)CC2)c2ccc(F)cc2)CC1 (stereo not drawn) | 880 nM

Compound | IC50
CCCCCCCn1c2c(c(=N)c3c1CCC3)CCCC2 | 100 nM
CS(=O)(=O)c1ccc(CNCc2ccc(-c3cccc(-c4nc5ccc(F)cc5[nH]4)c3)cc2)cc1 | 320 nM
COc1cc(C2=NN(S(=O)(=O)c3c(Cl)cc(Cl)cc3Cl)CCCC2)ccc1Cl | 290 nM
CCOC(=O)c1cnc2cc(N3CCCC3)c(Cl)cc2c1OCC | 110 nM
N#Cc1ccc(NC(=NC2Cc3ccccc3C2)Nc2cccc(Cl)c2Cl)c(O)c1 | 830 nM
COc1ccc2c(=O)ccn(CCN3CCC(NCc4ccc5c(n4)NC(=O)CS5)CC3)c2c1 | 230 nM
COc1ccc(N2CCN(CCCCNC(=O)c3ccc(NC(=O)c4ccc(Cl)cc4)cc3)CC2)c(C)c1 | 760 nM
COc1ccc(NC(=O)C2c3ccccc3C(=O)N(C3CCCC3)C2c2cccs2)cc1OC (stereo not drawn) | 1090 nM
CCC1(CC)CN(c2ccccc2)c2ccc(O)cc2S(=O)(=O)C1CC(C)C (stereo not drawn) | 400 nM
Cn1c(CN2CCC(N3CCc4cc(NC(=O)c5ccco5)ccc43)C2)cc2ccccc21 (stereo not drawn) | 880 nM
Cc1nc2nc(N)nc(N)c2c(C)c1Cc1ccccc1Br | 60 nM
Cc1nc2nc(N)nc(N)c2c(C)c1Cc1ccc([N+](=O)[O-])cc1 | 440 nM
COc1ccccc1C(C)NCC(=O)Nc1ccccc1Sc1ccccc1 (stereo not drawn) | 1100 nM
Cc1cnc(-c2cccc(C(=O)NC3CCC(CCN4CCc5ccc(C#N)cc5CC4)CC3)c2)[nH]1 (stereo not drawn) | 300 nM
Nc1c2c(nc3ccc(C(=O)Nc4ccc(Br)cc4)cc13)CCCC2 | 150 nM
COc1cc2nc(NCCc3ccccc3)nc(NCc3cc(C)no3)c2cc1OC | 240 nM
COc1ccc2nccc([C@H](O)CN3CCC(NCc4cc(C)c5c(c4)OCCO5)CC3)c2n1 | 900 nM
C=Cc1ccccc1C1(O)CCN(CCCCNC(=O)c2ccc(-c3ccc(C#N)cc3)cc2)CC1 | 520 nM
O=C(C=Cc1ccc(Cl)c(Cl)c1)NCCCCCN1CCC(CCNC(=O)c2cccc3ccccc23)CC1 | 1590 nM
CN1CC=C(c2c[nH]c3ccc(OC(=O)c4ccccc4)cc23)C1 | 800 nM
Cc1cccc2[nH]c(-c3cccc(-c4ccc(NC(=O)c5ccc(=O)[nH]n5)cc4)c3)nc12 | 860 nM
NC(=O)c1cnc2cc(-c3ccoc3)ccc2c1Nc1ccc(NC(=O)Nc2ccccc2Cl)cc1 | 540 nM
COc1ccccc1N(C)CCNc1cc(C)nc(Nc2ccc(C)cc2)n1 | 1570 nM
CN1CCN(CCCNCc2cccc(-c3ccc(CNCCc4ccccc4)cc3)c2)CC1 | 780 nM
CCCNC(=O)Nc1cc2cc(-c3cccc(CN4CCCCC4)c3)ccc2n2c(C)nnc12 | 1110 nM

Compound | IC50
CCc1ccc(C2CCN(CCCCNC(=O)c3ccc(-c4ccc(C#N)cc4)cc3)CC2)c(OCCO)c1 | 940 nM
CCN(CC)C(C)(C)CN(Cc1ccc(-c2ccc(C(F)(F)F)cc2)cc1)C(=O)Cn1c(CCc2cccc(F)c2F)nc(=O)c2ccccc21 | 960 nM
Cc1ccc(CC(C)NCC(O)c2cccc(C(F)(F)F)c2)cc1F (stereo not drawn) | 920 nM
O=C(Nc1cccc2ccccc12)N1CCC(NS(=O)(=O)c2cccc(C(F)(F)F)c2)CC1 | 910 nM
COc1ccc(-c2cccc(NC(=O)c3cccc(C#N)c3)c2)cc1CN1CCCC1 | 750 nM
CCCN(CC1CC1)c1nc(C)nc2c(-c3ccccc3)cc(C)cc12 | 1020 nM
CN(C)CCOc1ccc(-c2cc(-c3ccncc3)c(-c3ccc(Cl)c(O)c3)o2)cc1 | 210 nM
CCc1cccc(OCC2CCCN(c3ccc(C(=O)NC4CC4)cn3)C2)c1 (stereo not drawn) | 1440 nM
OCC1CCN(Cc2ccc(-c3cccc(-c4nc5ccccc5[nH]4)c3)cc2)CC1 | 810 nM
COc1ccc(Nc2ncc(Cl)c(Nc3cccnc3C(N)=O)n2)cc1N1CCN(C)CC1 | 230 nM
COc1cccc2cc(C(=O)N[C@@H](CC(C)C)C(=O)N[C@H](/C=N/NC(=O)c3ccccc3)Cc3cnc[nH]3)oc12 | 130 nM
N#Cc1ccc2[nH]cc(CN3CCC4(CC3)CN(CCNCc3ccccc3)C(=O)O4)c2c1 | 1160 nM
O=c1cc(NCCNCc2cccc(-c3ccccc3)c2)[nH]c2ccccc12 | 1030 nM
COc1ccccc1CNC(=O)C(=O)Nc1c(-c2ccccc2)[nH]c2ccccc12 | 740 nM
CCC(=O)Nc1nnc(Cc2ccc(OC)c(OC)c2)s1 | 910 nM
COc1ccc2nc3ccccc3c(NCCN3CCN(C)CC3)c2c1 | 1290 nM
CCN1CCN(C(=O)NC(C(=O)N2CCCC(COc3ccc(Cc4ccccc4)cc3)C2)c2cccs2)C(=O)C1=O (stereo not drawn) | 480 nM
COc1cc(NC(=O)c2ccc3oc4ccccc4c3c2)ccc1OCCN1CCCCC1 | 920 nM
Cc1ccc(NC(=S)NC2CCN(CCCCCNC(=O)/C=C/c3ccc(Cl)c(Cl)c3)CC2)cc1Cl | 990 nM
CCc1nc2c(cnn2CC)c(NC2CCOCC2)c1CNC(=O)c1ccoc1C | 890 nM
O=C(Nc1ccc([N+](=O)[O-])cc1)Nc1cc(OCC(F)(F)F)cc(OCC(F)(F)F)c1 | 470 nM
Cc1ccc(S(=O)(=O)c2nc(S(=O)(=O)c3ccccc3)sc2NCC2CCCO2)cc1 (stereo not drawn) | 1020 nM
COc1cc(C(=O)N2CC[C@@H](CCN3CCC4(CC3)CN(S(C)(=O)=O)c3ccccc34)C[C@H]2Cc2ccc(Cl)c(Cl)c2)cc(OC)c1OC | 840 nM
